Patent publication US20260200892A1, “CANNABINOID RECEPTOR 2 MODULATORS” (Hoffmann-La Roche Inc., priority 2023, published 2026)

How the values were obtained:
hCB1R = hCB1R (Homo sapiens, UniProt P21554); test: hCB1R binding (Kd hCB1R, Table 1)
[1] = biological target: T1, human CB2 receptor (hCB2R) (Homo sapiens, UniProt P34972); test: TR-FRET hCB2R binding assay; conditions: TR-FRET, membranes of SNAP-tagged human CB2R HEK293-TR cells, 100 μM GppNHp, nonspecific binding with SR144528; read-out: Kd hCB2R
T1 construct: expressed in transfected cells; membranes
T1 sequence (P34972 whole entry): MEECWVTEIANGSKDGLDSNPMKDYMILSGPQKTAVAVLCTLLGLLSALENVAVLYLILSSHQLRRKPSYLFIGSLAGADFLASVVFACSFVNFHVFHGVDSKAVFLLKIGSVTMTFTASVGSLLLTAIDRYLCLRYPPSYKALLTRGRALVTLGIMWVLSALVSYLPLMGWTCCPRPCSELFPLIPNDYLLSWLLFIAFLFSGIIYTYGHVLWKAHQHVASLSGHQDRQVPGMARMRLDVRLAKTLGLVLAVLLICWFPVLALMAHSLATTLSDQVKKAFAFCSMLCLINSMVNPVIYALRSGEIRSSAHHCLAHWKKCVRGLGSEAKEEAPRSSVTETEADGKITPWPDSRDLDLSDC

[2] = biological target: T2, CB2 receptor (hCB2R), CHO cell line stably overexpressing CB2 receptor (Homo sapiens, UniProt P34972); test: cAMP hCB2R functional assay (HTRF); format: cell-based; conditions: CHO cells overexpressing CB2 receptor, forskolin; for EC50: means ± SEM of 2-3 independent experiments; for Functionality: normalized to Emax of CP55940 (100%)
T2 construct: expressed in transfected cells; host or cells: CHO cell line stably overexpressing CB2 receptor (G418 selection)
T2 sequence (P34972 whole entry): as above
Description: cAMP hCB2R Functional Assay
The Homogeneous Time Resolved Fluorescence (HTRF) Assays
The homogeneous time-resolved fluorescence (HTRF) cAMP assay was conducted according to the manufacturer's protocol for the cAMP-Gs Dynamic kit (Cisbio). Briefly, the CHO cell line stably overexpressing CB2 receptor were maintained in Ham's F12 supplemented with 10% FBS, 100 U/ml penicillin and 100 μg/ml streptomycin (Gibco-ThermoFisher) and 400 μg/ml G418 (ThermoFisher). For CB2 compounds test, harvest the cells with Cell Dissociation Buffer and re-suspend the cells in F-12 K at 0.4*10^6 cells/mL, and dispense cells into 384-well low volume plates at 2000 cells/5 μL per well. The cells were stimulated with compounds diluted in Stimulation Buffer (2.5 μL/well) for 15 min at room temperature. And then followed by the addition of 2.5 μL 25 μM forsklin. After 15 mins incubation, reactions were stopped by 5 μL/well cAMP-d2 conjugate working solution followed by 5 μL/well of anti-cAMP cryptate working solution. After incubation for 1 h at room temperature, the plates were read in a PerkinElmer Envision reader for time-resolved fluorescence resonance energy transfer detection at 620 nm and 665 nm.
Quantification and Statistical Analysis
All HTRF ratio data sets of test compounds were normalized to the Emax of CP55940 (100%) and obtained the means±standard error of the mean (SEM) of 2-3 independent experiments performed in technical replicates.

Chain of hCB1R (P21554 whole entry): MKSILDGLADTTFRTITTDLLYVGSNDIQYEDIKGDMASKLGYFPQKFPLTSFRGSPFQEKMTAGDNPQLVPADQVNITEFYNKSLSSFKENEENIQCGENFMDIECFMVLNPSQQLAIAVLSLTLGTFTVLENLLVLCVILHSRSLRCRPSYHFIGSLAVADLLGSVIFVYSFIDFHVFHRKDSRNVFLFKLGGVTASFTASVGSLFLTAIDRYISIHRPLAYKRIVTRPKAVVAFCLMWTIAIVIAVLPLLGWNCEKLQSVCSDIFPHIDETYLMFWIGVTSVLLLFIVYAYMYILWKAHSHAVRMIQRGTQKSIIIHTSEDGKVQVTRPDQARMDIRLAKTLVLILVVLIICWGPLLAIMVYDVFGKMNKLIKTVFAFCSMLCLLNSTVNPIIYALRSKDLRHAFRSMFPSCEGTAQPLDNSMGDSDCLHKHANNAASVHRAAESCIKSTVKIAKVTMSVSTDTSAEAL

## CCCCC[C@@H](c1ccccc1)C(C)(C)c1cc(OC)c([C@H]2C=C(CO)[C@H]3C[C@@H]2C3(C)C)c(OC)c1 [Example 8, ((1S,4S,5S)-4-(2,6-dimethoxy-4-((S)-2-methyl-3-phenyloctan-2-yl)phenyl)-6,6-dimethylbicyclo[3.1.1]hept-2-en-2-yl)methanol]
hCB1R
  Kd: 716 nM
[1]
  Kd: 4.5 nM
[2]
  EC50: 302 nM
  Functionality: inverse agonist

## CCCCC[C@@H](c1cccc(F)c1)C(C)(C)c1cc(OC)c([C@H]2C=C(CO)[C@H]3C[C@@H]2C3(C)C)c(OC)c1 [Example 12, ((1S,4S,5S)-4-(4-((S)-3-(3-fluorophenyl)-2-methyloctan-2-yl)-2,6-dimethoxyphenyl)-6,6-dimethylbicyclo[3.1.1]hept-2-en-2-yl)methanol]
hCB1R
  Kd: 1950 nM
[1]
  Kd: 30 nM
[2]
  EC50: 209 nM
  Functionality: inverse agonist

## CCCCC[C@H](c1ccccc1)C(C)(C)c1cc(OC)c([C@H]2C=C(CO)[C@H]3C[C@@H]2C3(C)C)c(OC)c1 [Example 7, ((1S,4S,5S)-4-(2,6-dimethoxy-4-((R)-2-methyl-3-phenyloctan-2-yl)phenyl)-6,6-dimethylbicyclo[3.1.1]hept-2-en-2-yl)methanol]
hCB1R
  Kd: 1040 nM
[1]
  Kd: 197 nM
[2]
  EC50: 417 nM
  Functionality: inverse agonist

## CCCCC[C@@H](c1ccc(F)cc1)C(C)(C)c1cc(OC)c([C@H]2C=C(CO)[C@H]3C[C@@H]2C3(C)C)c(OC)c1 [Example 10, ((1S,4S,5S)-4-(4-((S)-3-(4-fluorophenyl)-2-methyloctan-2-yl)-2,6-dimethoxyphenyl)-6,6-dimethylbicyclo[3.1.1]hept-2-en-2-yl)methanol]
hCB1R
  Kd: 1790 nM
[1]
  Kd: 301 nM
[2]
  Functionality: antagonist

## CCCCC[C@@H](C(F)(F)F)C(C)(C)c1cc(OC)c([C@H]2C=C(CO)[C@H]3C[C@@H]2C3(C)C)c(OC)c1 [Example 1, ((1S,4S,5S)-4-(2,6-dimethoxy-4-((R)-2-methyl-3-(trifluoromethyl)octan-2-yl)phenyl)-6,6-dimethylbicyclo[3.1.1]hept-2-en-2-yl)methanol]
hCB1R
  Kd: 11800 nM
[1]
  Kd: 606 nM
[2]
  Functionality: antagonist

## CCCCCC(C(C)C)C(C)(C)c1cc(OC)c([C@H]2C=C(CO)[C@H]3C[C@@H]2C3(C)C)c(OC)c1 (stereo partly drawn) [Example 6, ((1S,4S,5S)-4-(4-(3-isopropyl-2-methyloctan-2-yl)-2,6-dimethoxyphenyl)-6,6-dimethylbicyclo[3.1.1]hept-2-en-2-yl)methanol]
hCB1R
  Kd: 7040 nM
[1]
  Kd: 6.1 nM
[2]
  Functionality: antagonist

## CCCCC[C@@H](CC)C(C)(C)c1cc(OC)c([C@H]2C=C(CO)[C@H]3C[C@@H]2C3(C)C)c(OC)c1 (single isomer, unassigned) [Example 4]
hCB1R
  Kd: 2190 nM
[1]
  Kd: 0.97 nM
[2]
  Functionality: antagonist

## CCCCC[C@H](c1cccc(F)c1)C(C)(C)c1cc(OC)c([C@H]2C=C(CO)[C@H]3C[C@@H]2C3(C)C)c(OC)c1 [Example 11, ((1S,4S,5S)-4-(4-((R)-3-(3-fluorophenyl)-2-methyloctan-2-yl)-2,6-dimethoxyphenyl)-6,6-dimethylbicyclo[3.1.1]hept-2-en-2-yl)methanol]
hCB1R
  Kd: 2690 nM
[1]
  Kd: 355 nM
[2]
  EC50: 2340 nM
  Functionality: inverse agonist

## CCCCC[C@H](C(F)(F)F)C(C)(C)c1cc(OC)c([C@H]2C=C(CO)[C@H]3C[C@@H]2C3(C)C)c(OC)c1 [Example 2, ((1S,4S,5S)-4-(2,6-dimethoxy-4-((S)-2-methyl-3-(trifluoromethyl)octan-2-yl)phenyl)-6,6-dimethylbicyclo[3.1.1]hept-2-en-2-yl)methanol]
hCB1R
  Kd: 6530 nM
[1]
  Kd: 9.9 nM
[2]
  EC50: 11.7 nM
  Functionality: agonist

## CCCCCC(CC)C(C)(C)c1cc(OC)c([C@H]2C=C(CO)[C@H]3C[C@@H]2C3(C)C)c(OC)c1 (stereo partly drawn) [Example 3, ((1S,4S,5S)-4-(4-(3-ethyl-2-methyloctan-2-yl)-2,6-dimethoxyphenyl)-6,6-dimethylbicyclo[3.1.1]hept-2-en-2-yl)methanol]
hCB1R
  Kd: 13000 nM
[1]
  Kd: 0.56 nM
[2]
  EC50: 100 nM
  Functionality: partial agonist

## COc1cc(C(C)(C)[C@H](CCCCCN=[N+]=[N-])c2ccccc2)cc(OC)c1[C@H]1C=C(CNC(=O)CCCCCCNc2ccc([N+](=O)[O-])c3nonc23)[C@H]2C[C@@H]1C2(C)C [Example 24, N-(((1S,4S,5S)-4-(4-((R)-8-azido-2-methyl-3-phenyloctan-2-yl)-2,6-dimethoxyphenyl)-6,6-dimethylbicyclo[3.1.1]hept-2-en-2-yl)methyl)-7-((7-nitrobenzo [c][1,2,5]oxadiazol-4-yl)amino)heptanamide]
hCB1R
  Kd: 840 nM
[1]
  Kd: 12.3 nM
[2]
  EC50: 1230 nM
  Functionality: inverse agonist

## CCCCC[C@H](c1ccc(F)cc1)C(C)(C)c1cc(OC)c([C@H]2C=C(CO)[C@H]3C[C@@H]2C3(C)C)c(OC)c1 [Example 9, ((1S,4S,5S)-4-(4-((R)-3-(4-fluorophenyl)-2-methyloctan-2-yl)-2,6-dimethoxyphenyl)-6,6-dimethylbicyclo[3.1.1]hept-2-en-2-yl)methanol]
hCB1R
  Kd: 1480 nM
[1]
  Kd: 1150 nM
[2]
  Functionality: antagonist

## CCCCCC(CCC)C(C)(C)c1cc(OC)c([C@H]2C=C(CO)[C@H]3C[C@@H]2C3(C)C)c(OC)c1 (stereo partly drawn) [Example 5, ((1S,4S,5S)-4-(2,6-dimethoxy-4-(2-methyl-3-propyloctan-2-yl)phenyl)-6,6-dimethylbicyclo[3.1.1]hept-2-en-2-yl)methanol]
hCB1R
  Kd: 6740 nM
[1]
  Kd: 74 nM
[2]
  EC50: 112 nM
  Functionality: inverse agonist
